Legend:
DU-145 = test: Antiproliferative activity against human DU-145 cells assessed as inhibition of cell growth incubated for 72 hrs by MTT assay; type: functional, cell-based; settings: DU-145, 72 h
A549 [1] = test: Antitumor activity against paclitaxel-resistant human A549 cells xenografted in BALB/c nude mouse assessed as tumor growth inhibition at 24 mg/kg, po administered once daily and measured twice a week relative to control; type: functional; settings: read-out: TGI
A549 [2] = test: Antiproliferative activity against paclitaxel-resistant human A549 cells assessed as inhibition of cell growth incubated for 72 hrs by MTT assay; type: functional, cell-based; settings: A549, 72 h
MCF7R = test: Antiproliferative activity against paclitaxel-resistant human MCF7R cells assessed as inhibition of cell growth incubated for 72 hrs by MTT assay; type: functional, cell-based
NCI-H1437 = test: Antiproliferative activity against human NCI-H1437 cells assessed as inhibition of cell growth incubated for 72 hrs by MTT assay; type: functional, cell-based; settings: NCI-H1437, 72 h
HGC-27 = test: Antiproliferative activity against human HGC-27 cells assessed as inhibition of cell growth incubated for 72 hrs by MTT assay; type: functional, cell-based; settings: HGC-27, 72 h
MCF7 = test: cells; settings: Homo sapiens, MCF7, 72 h
Description: Antiproliferative activity against human MCF7 cells assessed as inhibition of cell growth incubated for 72 hrs by MTT assay

SW1990 = test: Antiproliferative activity against human SW1990 cells assessed as inhibition of cell growth incubated for 72 hrs by MTT assay; type: functional, cell-based; settings: SW1990, 72 h
HepG2 = test: cells; settings: Homo sapiens, HepG2, 72 h
HCT-8 = test: Antiproliferative activity against human HCT-8 cells assessed as inhibition of cell growth incubated for 72 hrs by MTT assay; type: functional, cell-based; settings: HCT-8, 72 h
NCI-H1299 = test: Antiproliferative activity against human NCI-H1299 cells assessed as inhibition of cell growth incubated for 72 hrs by MTT assay; type: functional, cell-based; settings: NCI-H1299, 72 h
HCT-116 = test: cells; settings: Homo sapiens, HCT-116, 72 h
Description: Antiproliferative activity against human HCT-116 cells assessed as inhibition of cell growth incubated for 72 hrs by MTT assay

NCI-H460 = test: cells; settings: Homo sapiens, NCI-H460, 72 h
Description: Antiproliferative activity against human NCI-H460 cells assessed as inhibition of cell growth incubated for 72 hrs by MTT assay

MDA-MB-231 = test: cells; settings: Homo sapiens, MDA-MB-231, 72 h
BGC-823 = test: Antiproliferative activity against human BGC-823 cells assessed as inhibition of cell growth incubated for 72 hrs by MTT assay; type: functional, cell-based; settings: BGC-823, 72 h
HUVEC = test: Anti-angiogenesis activity against HUVEC cells assessed as inhibition of cell growth incubated for 72 hrs by MTT assay; type: functional, cell-based; settings: Homo sapiens
B16-F10 = test: Antiproliferative activity against mouse B16-F10 cells assessed as inhibition of cell growth incubated for 72 hrs by MTT assay; type: functional, cell-based; settings: B16-F10, 72 h
A549 [3] = test: cells; settings: Homo sapiens, A549, 72 h

| Structure (SMILES) | IC50 (DU-145) [nM] | also measured |
| --- | --- | --- |
| Cc1ccc(C(=O)NCc2cccnc2)cc1NS(=O)(=O)c1ccc(OC(F)(F)F)cc1 | > 10000 |  |
| Cc1ccc(S(=O)(=O)Nc2cccc(C(=O)NCc3cccnc3)c2)cc1 | 700 |  |
| CCCCc1ccc(S(=O)(=O)Nc2cc(C(=O)NCc3cccnc3)ccc2C)cc1 | > 10000 |  |
| Cc1ccc(S(=O)(=O)Nc2ccc(F)c(C(=O)NCc3cccnc3)c2)cc1 | > 10000 |  |
| Cc1ccc(S(=O)(=O)Nc2cc(C(=O)NCc3cccnc3)ccc2Cl)cc1 | 800 |  |
| Cc1ccc(C(=O)NCc2cccnc2)cc1NS(=O)(=O)c1ccc2c(c1)OCO2 | 610 |  |
| Cc1ccc(C(=O)NCc2cccnc2)cc1NS(=O)(=O)c1ccc(C(C)(C)C)cc1 | > 10000 |  |
| CCc1ccc(S(=O)(=O)Nc2cc(C(=O)NCc3ccc(C)nc3)ccc2C)cc1 | 11 |  |
| Cc1ccc(S(=O)(=O)Nc2ccc(C)c(C(=O)NCc3cccnc3)c2)cc1 | 2000 |  |
| Cc1ccc(S(=O)(=O)Nc2cc(F)cc(C(=O)NCc3cccnc3)c2)cc1 | 900 |  |
| Cc1ccc(S(=O)(=O)Nc2cc(C(=O)NCc3cccnc3)ccc2C)cc1C | 970 |  |
| Cc1ccc(C(=O)NCc2cccnc2)cc1NS(=O)(=O)c1ccc(C(C)C)cc1 | 1000 |  |
| Cc1ccc(S(=O)(=O)Nc2cc(C(=O)NCc3cccnc3)cc(C(F)(F)F)c2)cc1 | > 10000 |  |
| Cc1ccc(S(=O)(=O)Nc2cc(C(=O)Nc3cccnc3)ccc2C)cc1 | > 10000 |  |
| CNC(=O)c1ccc(C)c(NS(=O)(=O)c2ccc(C)cc2)c1 | > 10000 |  |
| Cc1ccc(S(=O)(=O)Nc2cc(C(=O)NC3(c4cnccn4)CC3)ccc2C)cc1 | 800 |  |
| Cc1ccc(C(=O)NCc2cccnc2)cc1NS(=O)(=O)c1ccc(C#N)cc1 | > 10000 |  |
| Cc1ccc(C(=O)NCc2cccnc2)cc1NS(=O)(=O)c1ccc2ccccc2c1 | 1000 |  |

| Structure (SMILES) | IC50 (DU-145) [nM] | also measured |
| --- | --- | --- |
| Cc1ccc(C(=O)NCc2cccnc2)cc1NS(=O)(=O)c1ccc2c(c1)CCC2 | 900 |  |
| Cc1ccc(CNC(=O)c2ccc(C)c(NS(=O)(=O)c3ccc(C4CC4)cc3)c2)cn1 | 12 |  |
| Cc1ccc(C(=O)NCc2cccnc2)cc1NS(=O)(=O)c1ccc(C(F)(F)F)cc1 | 5300 |  |
| CCc1ccc(C(=O)NCc2cccnc2)cc1NS(=O)(=O)c1ccc(C)cc1 | 860 |  |
| Cc1ccc(S(=O)(=O)Nc2cc(C(=O)NCCc3cccnc3)ccc2C)cc1 | > 10000 |  |
| Cc1ccc(S(=O)(=O)Nc2cc(C(=O)NCc3ccccc3)ccc2C)cc1 | > 10000 |  |
| Cc1ccc(C(=O)NCc2cccnc2)cc1NS(=O)(=O)c1ccc(F)cc1 | 3500 |  |
| CCOc1ccc(S(=O)(=O)Nc2cc(C(=O)NCc3cccnc3)ccc2C)cc1 | 860 |  |
| Cc1ccc(C(=O)NCc2cccnc2)cc1NS(=O)(=O)c1ccc2c(c1)OCCO2 | 420 |  |
| COc1cc2c(c(OC)c1OC)-c1ccc(OC)c(=O)cc1[C@@H](NC(C)=O)CC2 [COLCHICINE] | 3 | IC50 (NCI-H1437): 2 nM; IC50 (HGC-27): 3 nM; IC50 (MCF7): 6 nM; IC50 (SW1990): 10 nM; IC50 (HepG2): 2 nM; IC50 (HCT-8): 22 nM; IC50 (A549 [3]): 30 nM; IC50 (NCI-H1299): 4 nM; IC50 (HCT-116): 3 nM; IC50 (NCI-H460): 54 nM; IC50 (MDA-MB-231): 23 nM; IC50 (BGC-823): 16 nM; IC50 (B16-F10): 3 nM |
| COc1ccc(NS(=O)(=O)c2ccc(C)cc2)cc1C(=O)NCc1cccnc1 | > 10000 |  |
| CCc1ccc(S(=O)(=O)Nc2cc(C(=O)NCc3cccnc3)ccc2C)cc1 | 40 |  |
| Cc1ccc(S(=O)(=O)Nc2cc(C)cc(C(=O)NCc3cccnc3)c2)cc1 | 340 |  |
| Cc1ccc(S(=O)(=O)Nc2cc(C(=O)NCc3cccnc3)ccc2F)cc1 | 790 |  |
| Cc1ccc(S(=O)(=O)Nc2cc(Cl)cc(C(=O)NCc3cccnc3)c2)cc1 | 340 |  |
| Cc1ccc(S(=O)(=O)Nc2cc(C(=O)NCc3ccncc3)ccc2C)cc1 | 1700 |  |
| Cc1ccc(S(=O)(=O)Nc2cc(C(=O)NCc3ccnnc3)ccc2C)cc1 | 1300 |  |

Continued, in another order:

| IC50 (DU-145) [nM] | Structure (SMILES) | also measured |
| --- | --- | --- |
| > 10000 | Cc1ccc(S(=O)(=O)Nc2ccc(Cl)c(C(=O)NCc3cccnc3)c2)cc1 |  |
| 9700 | CCCc1ccc(S(=O)(=O)Nc2cc(C(=O)NCc3cccnc3)ccc2C)cc1 |  |
| 65 | Cc1ccc(S(=O)(=O)Nc2cc(C(=O)NCc3ccc(Cl)nc3)ccc2C)cc1 |  |
| > 10000 | Cc1ccc(S(=O)(=O)Nc2cc(C(=O)NCc3ccccn3)ccc2C)cc1 |  |
| 200 | Cc1ccc(S(=O)(=O)Nc2cc(C(=O)NCc3ccc(C(F)(F)F)nc3)ccc2C)cc1 |  |
| 500 | Cc1ccc(S(=O)(=O)Nc2cc(C(=O)NCc3cccnc3)ccc2C)c(C)c1 |  |
| 120 | Cc1ccc(S(=O)(=O)Nc2cc(C(=O)NCc3cccnc3)ccc2C)cc1 |  |
| > 10000 | Cc1ccc(S(=O)(=O)Nc2cc(C(=O)NCc3cnccn3)ccc2C)cc1 |  |
| < 1 | CC(=O)O[C@H]1C(=O)[C@@]2(C)[C@H]([C@H](OC(=O)c3ccccc3)[C@]3(O)C[C@H](OC(=O)[C@H](O)[C@@H](NC(=O)c4ccccc4)c4ccccc4)C(C)=C1C3(C)C)[C@]1(OC(C)=O)CO[C@@H]1C[C@@H]2O [PACLITAXEL] | inhibition in vivo at 24 mg/kg (A549 [1]): 53.8%; IC50 (A549 [2]): 390 nM; IC50 (MCF7R): 190 nM; IC50 (NCI-H1437): < 1 nM; IC50 (HGC-27): < 1 nM; IC50 (MCF7): < 1 nM; IC50 (SW1990): 10 nM; IC50 (HepG2): < 1 nM; IC50 (HCT-8): 86 nM; IC50 (NCI-H1299): 9 nM; IC50 (HCT-116): < 1 nM; IC50 (NCI-H460): < 1 nM; IC50 (MDA-MB-231): < 1 nM; IC50 (BGC-823): < 1 nM; IC50 (HUVEC): 71 nM; IC50 (B16-F10): < 1 nM |
| 180 | COc1ccc(S(=O)(=O)Nc2cc(C(=O)NCc3cccnc3)ccc2C)cc1 |  |
| 510 | Cc1ccc(S(=O)(=O)Nc2cc(C(=O)NC(C)c3cnccn3)ccc2C)cc1 (stereo not drawn) |  |
| 50 | Cc1ccc(C(=O)NCc2cccnc2)cc1NS(=O)(=O)c1ccc(C2CC2)cc1 |  |
| 9500 | COc1ccc(C(=O)NCc2cccnc2)cc1NS(=O)(=O)c1ccc(C)cc1 |  |
| 930 | Cc1ccc(C(=O)NCc2cccnc2)cc1NS(=O)(=O)c1ccc(Cl)cc1 |  |
| > 10000 | Cc1ccc(S(=O)(=O)Nc2cc(C(=O)NCc3cccnc3)ccc2C(F)(F)F)cc1 |  |
| 6200 | COc1cc(NS(=O)(=O)c2ccc(C)cc2)cc(C(=O)NCc2cccnc2)c1 |  |
| 1200 | Cc1ccc(C(=O)NCc2cccnc2)cc1NS(=O)(=O)c1ccc2c(c1)CCO2 |  |
| > 10000 | Cc1ccc(S(=O)(=O)Nc2cc(C#N)cc(C(=O)NCc3cccnc3)c2)cc1 |  |
| > 10000 | Cc1ccc(C(=O)NCc2cccnc2)cc1NS(=O)(=O)c1ccccc1 |  |
